Experimental data as given in ChEMBL document CHEMBL4219034, “Synthesis, antimicrobial activity, structure-activity relationship and cytotoxic studies of a new series of functionalized (Z)-3-(2-oxo-2-substituted ethylidene)-3,4-dihydro-2H-benzo[b][1,4]oxazin-2-ones” (Bioorg Med Chem Lett, 2017).
≈ marks a conversion by molar mass, not a printed value. Calls of active or inactive are those of the source. The rule behind the calls is not given here.

Assays:
Assay type in all cases: functional
[1] = test system: Streptomyces griseus; experiment: Antibacterial activity against Streptomyces griseus MTCC 4734 incubated for 24 hrs by serial dilution method
[2] = test system: Staphylococcus aureus; experiment: Antibacterial activity against Staphylococcus aureus MTCC 3381 incubated for 24 hrs by serial dilution method
[3] = test system: Bacillus subtilis; experiment: Antibacterial activity against Bacillus subtilis MTCC 10619 incubated for 24 hrs by serial dilution method
[4] = test system: Escherichia coli; experiment: Antibacterial activity against Escherichia coli MTCC 443 incubated for 24 hrs by serial dilution method
[5] = test system: Fusarium oxysporum; experiment: Antifungal activity against Fusarium oxysporum ATCC 62506 incubated for 24 hrs by serial dilution method
[6] = test system: Aspergillus niger; experiment: Antifungal activity against Aspergillus niger ATCC 9029 incubated for 24 hrs by serial dilution method
[7] = test system: Talaromyces funiculosus; experiment: Antifungal activity against Penicillium funiculosum ATCC 11797 incubated for 24 hrs by serial dilution method
[8] = test system: Trichoderma reesei; experiment: Antifungal activity against Trichoderma reesei ATCC 13631 incubated for 24 hrs by serial dilution method
[9] = test system: Streptomyces griseus; experiment: Antibacterial activity against Streptomyces griseus MTCC 4734 at 100 ug/ml incubated for 12 hrs by agar disc diffusion assay; settings: for zone of inhibition at 100 µg/mL: MTCC 4734, 12 h, read-out: IZ
[10] = test system: Staphylococcus aureus; experiment: Antibacterial activity against Staphylococcus aureus MTCC 3381 at 100 ug/ml incubated for 12 hrs by agar disc diffusion assay; settings: for zone of inhibition at 100 µg/mL: MTCC 3381, 12 h, read-out: IZ
[11] = test system: Bacillus subtilis; experiment: Antibacterial activity against Bacillus subtilis MTCC 10619 at 100 ug/ml incubated for 12 hrs by agar disc diffusion assay; settings: for zone of inhibition at 100 µg/mL: MTCC 10619, 12 h, read-out: IZ
[12] = test system: Escherichia coli; experiment: Antibacterial activity against Escherichia coli MTCC 443 at 100 ug/ml incubated for 12 hrs by agar disc diffusion assay; settings: for zone of inhibition at 100 µg/mL: MTCC 443, 12 h, read-out: IZ
[13] = test system: Fusarium oxysporum; experiment: Antifungal activity against Fusarium oxysporum ATCC 62506 at 100 ug/ml incubated for 72 hrs by agar disc diffusion assay; settings: for zone of inhibition at 100 µg/mL: ATCC 62506, 72 h, read-out: IZ
[14] = test system: Aspergillus niger; experiment: Antifungal activity against Aspergillus niger ATCC 9029 at 100 ug/ml incubated for 72 hrs by agar disc diffusion assay; settings: for zone of inhibition at 100 µg/mL: ATCC 9029, 72 h, read-out: IZ
[15] = test system: Talaromyces funiculosus; experiment: Antifungal activity against Penicillium funiculosum ATCC 11797 at 100 ug/ml incubated for 72 hrs by agar disc diffusion assay; settings: for zone of inhibition at 100 µg/mL: ATCC 11797, 72 h, read-out: IZ
[16] = test system: Trichoderma reesei; experiment: Antifungal activity against Trichoderma reesei ATCC 13631 at 100 ug/ml incubated for 72 hrs by agar disc diffusion assay; settings: for zone of inhibition at 100 µg/mL: ATCC 13631, 72 h, read-out: IZ

MIC ([1]; MTCC 4734, 24 h) | MIC [2] | MIC ([4]; MTCC 443, 24 h) | MIC ([5]; ATCC 62506, 24 h) | MIC [6] | MIC [7] | MIC [8] | MIC [1] | MIC [3] | MIC [5] | SMILES | zone of inhibition at 100 µg/mL [9] | inhibition zone (IZ) [10] | zone of inhibition at 100 µg/mL [12] | zone of inhibition at 100 µg/mL [13] | inhibition zone (IZ) [14] | inhibition zone (IZ) [15] | inhibition zone (IZ) [16] | inhibition zone (IZ) [9] | inhibition zone (IZ) [11] | inhibition zone (IZ) [13] | further results
50 µg/mL (≈ 129 µM) | inactive | 25 µg/mL (≈ 64.7 µM) | 25 µg/mL (≈ 64.7 µM) | inactive | inactive | inactive |  |  |  | O=C1Oc2cc([N+](=O)[O-])ccc2N/C1=C\C(=O)c1ccc(-c2ccccc2)cc1 | 10 mm | inactive | 12 mm | 18 mm | inactive | inactive | inactive |  |  |  | MIC ([3]; MTCC 10619, 24 h): 100 µg/mL (≈ 259 µM); zone of inhibition at 100 µg/mL [11]: 8 mm
 |  | 50 µg/mL (≈ 218 µM) | 100 µg/mL (≈ 436 µM) | inactive | inactive |  | inactive | inactive |  | O=C1Oc2ccccc2N/C1=C\C(=O)C1CC1 |  |  | 10 mm | 8 mm | inactive | inactive |  | inactive | inactive |  | MIC ([2]; MTCC 3381, 24 h): 100 µg/mL (≈ 436 µM); MIC ([8]; ATCC 13631, 24 h): 100 µg/mL (≈ 436 µM); zone of inhibition at 100 µg/mL [10]: 4 mm; zone of inhibition at 100 µg/mL [16]: 4 mm
100 µg/mL (≈ 411 µM) |  | 100 µg/mL (≈ 411 µM) |  | inactive | inactive | inactive |  | inactive | inactive | Cc1ccc2c(c1)N/C(=C\C(=O)C1CC1)C(=O)O2 | 6 mm |  | 8 mm |  | inactive | inactive | inactive |  | inactive | inactive | MIC ([2]; MTCC 3381, 24 h): 12.5 µg/mL (≈ 51.4 µM); zone of inhibition at 100 µg/mL [10]: 14 mm
 | inactive |  |  | inactive | inactive | inactive | inactive | inactive | inactive | Cc1ccc2c(c1)N/C(=C\C(=O)c1cccc3ccccc13)C(=O)O2 |  | inactive |  |  | inactive | inactive | inactive | inactive | inactive | inactive | MIC [4]: inactive; inhibition zone (IZ) [12]: inactive
 | inactive | 25 µg/mL (≈ 73.2 µM) |  |  |  | inactive | inactive | inactive | inactive | O=C1Oc2ccccc2N/C1=C\C(=O)c1ccc(-c2ccccc2)cc1 |  | inactive | 14 mm |  |  |  | inactive | inactive | inactive | inactive | MIC ([6]; ATCC 9029, 24 h): 100 µg/mL (≈ 293 µM); MIC ([7]; ATCC 11797, 24 h): 25 µg/mL (≈ 73.2 µM); zone of inhibition at 100 µg/mL [14]: 4 mm; zone of inhibition at 100 µg/mL [15]: 14 mm
12.5 µg/mL (≈ 35.2 µM) |  | 25 µg/mL (≈ 70.3 µM) |  | inactive | inactive | inactive |  |  | inactive | Cc1ccc2c(c1)N/C(=C\C(=O)c1ccc(-c3ccccc3)cc1)C(=O)O2 | 18 mm |  | 20 mm |  | inactive | inactive | inactive |  |  | inactive | MIC ([2]; MTCC 3381, 24 h): 12.5 µg/mL (≈ 35.2 µM); MIC ([3]; MTCC 10619, 24 h): 25 µg/mL (≈ 70.3 µM); zone of inhibition at 100 µg/mL [10]: 11 mm; zone of inhibition at 100 µg/mL [11]: 12 mm
100 µg/mL (≈ 278 µM) | inactive | 100 µg/mL (≈ 278 µM) | 50 µg/mL (≈ 139 µM) | inactive | inactive | inactive |  |  |  | O=C1Oc2ccc([N+](=O)[O-])cc2N/C1=C\C(=O)c1cccc2ccccc12 | 4 mm | inactive | 10 mm | 10 mm | inactive | inactive | inactive |  |  |  | MIC ([3]; MTCC 10619, 24 h): 100 µg/mL (≈ 278 µM); zone of inhibition at 100 µg/mL [11]: 4 mm
 | inactive |  |  | inactive | inactive | inactive | inactive | inactive | inactive | O=C1Oc2ccc(Cl)cc2N/C1=C\C(=O)c1cccc2ccccc12 |  | inactive |  |  | inactive | inactive | inactive | inactive | inactive | inactive | MIC [4]: inactive; inhibition zone (IZ) [12]: inactive
 | inactive |  | 50 µg/mL (≈ 138 µM) |  | inactive | inactive | inactive | inactive |  | Cc1ccc2c(c1)N/C(=C\C(=O)c1ccc(C3CCCCC3)cc1)C(=O)O2 |  | inactive |  | 12 mm | inactive | inactive | inactive | inactive | inactive |  | MIC [4]: inactive; MIC ([6]; ATCC 9029, 24 h): 100 µg/mL (≈ 277 µM); inhibition zone (IZ) [12]: inactive
 | inactive |  |  |  |  | inactive | inactive | inactive | inactive | O=C1Oc2ccc(Cl)cc2N/C1=C\C(=O)c1ccc(-c2ccccc2)cc1 |  | inactive |  |  |  |  | inactive | inactive | inactive | inactive | MIC [4]: inactive; MIC ([6]; ATCC 9029, 24 h): 25 µg/mL (≈ 66.5 µM); MIC ([7]; ATCC 11797, 24 h): 25 µg/mL (≈ 66.5 µM); inhibition zone (IZ) [12]: inactive; zone of inhibition at 100 µg/mL [14]: 8 mm; zone of inhibition at 100 µg/mL [15]: 12 mm
100 µg/mL (≈ 262 µM) | inactive |  | 25 µg/mL (≈ 65.5 µM) |  | inactive |  |  | inactive |  | O=C1Oc2ccc(Cl)cc2N/C1=C\C(=O)c1ccc(C2CCCCC2)cc1 | 6 mm | inactive |  | 14 mm |  | inactive |  |  | inactive |  | MIC [4]: inactive; MIC ([6]; ATCC 9029, 24 h): 25 µg/mL (≈ 65.5 µM); MIC ([8]; ATCC 13631, 24 h): 25 µg/mL (≈ 65.5 µM); inhibition zone (IZ) [12]: inactive; zone of inhibition at 100 µg/mL [14]: 10 mm; zone of inhibition at 100 µg/mL [16]: 16 mm
 | inactive |  |  |  | inactive |  | inactive | inactive | inactive | O=C1Oc2ccccc2N/C1=C\C(=O)c1cccc2ccccc12 |  | inactive |  |  |  | inactive |  | inactive | inactive | inactive | MIC [4]: inactive; MIC ([6]; ATCC 9029, 24 h): 100 µg/mL (≈ 317 µM); MIC ([8]; ATCC 13631, 24 h): 100 µg/mL (≈ 317 µM); inhibition zone (IZ) [12]: inactive; zone of inhibition at 100 µg/mL [14]: 4 mm; zone of inhibition at 100 µg/mL [16]: 4 mm

SMILES | MIC ([1]; MTCC 4734, 24 h) | MIC [2] | MIC ([4]; MTCC 443, 24 h) | MIC ([5]; ATCC 62506, 24 h) | MIC [6] | MIC [7] | MIC [8] | MIC [1] | MIC [3] | MIC [5] | zone of inhibition at 100 µg/mL [9] | inhibition zone (IZ) [10] | zone of inhibition at 100 µg/mL [12] | zone of inhibition at 100 µg/mL [13] | inhibition zone (IZ) [14] | inhibition zone (IZ) [15] | inhibition zone (IZ) [16] | inhibition zone (IZ) [9] | inhibition zone (IZ) [11] | inhibition zone (IZ) [13] | further results
CC1(C)S[C@@H]2[C@H](NC(=O)[C@H](N)c3ccccc3)C(=O)N2[C@H]1C(=O)O [AMPICILLIN] | 12.5 µg/mL (≈ 35.8 µM) |  | 12.5 µg/mL (≈ 35.8 µM) |  |  |  |  |  |  |  | 20 mm |  | 24 mm |  |  |  |  |  |  |  | MIC ([2]; MTCC 3381, 24 h): 12.5 µg/mL (≈ 35.8 µM); MIC ([3]; MTCC 10619, 24 h): 25 µg/mL (≈ 71.5 µM); zone of inhibition at 100 µg/mL [10]: 11 mm; zone of inhibition at 100 µg/mL [11]: 18 mm
CC(=O)N1CCN(c2ccc(OCC3COC(Cn4ccnc4)(c4ccc(Cl)cc4Cl)O3)cc2)CC1 (stereo unspecified) [KETOCONAZOLE] |  |  |  | 12.5 µg/mL (≈ 23.5 µM) |  |  |  |  |  |  |  |  |  | 20 mm |  |  |  |  |  |  | MIC ([6]; ATCC 9029, 24 h): 12.5 µg/mL (≈ 23.5 µM); MIC ([7]; ATCC 11797, 24 h): 25 µg/mL (≈ 47 µM); MIC ([8]; ATCC 13631, 24 h): 25 µg/mL (≈ 47 µM); zone of inhibition at 100 µg/mL [14]: 18 mm; zone of inhibition at 100 µg/mL [15]: 22 mm; zone of inhibition at 100 µg/mL [16]: 24 mm
O=C(N[C@H](CO)[C@H](O)c1ccc([N+](=O)[O-])cc1)C(Cl)Cl [CHLORAMPHENICOL] | 3.12 µg/mL (≈ 9.67 µM) |  | 6.25 µg/mL (≈ 19.3 µM) |  |  |  |  |  |  |  | 28 mm |  | 32 mm |  |  |  |  |  |  |  | MIC ([2]; MTCC 3381, 24 h): 6.25 µg/mL (≈ 19.3 µM); MIC ([3]; MTCC 10619, 24 h): 6.25 µg/mL (≈ 19.3 µM); zone of inhibition at 100 µg/mL [10]: 22 mm; zone of inhibition at 100 µg/mL [11]: 26 mm
